Tested on: not given
Experiment: not given
Conditions: not given
In the case of `COc1cc2cc(COC(C)=O)c(COC(C)=O)c(-c3ccnc(C4C(=O)CCCC4=O)c3)c2cc1OC`, the melting point is reported as 210 to 213 °C. In the case of `COc1cc2c(cc1OC)C(c1ccccc1)N1CCN(C(=O)c3ccccc3)CC1C2.Cl` (centres unmarked), the melting point is reported as 229 to 233 °C (dec.). With `COc1cc2c(cc1OC)C(c1ccccc1)N1CCN(CC(=O)O)CC1C2.Cl.Cl` (centres unmarked) the melting point was 214 to 217 °C (dec.). For `COc1cc2cc(CO)c(CO)c(-c3ccnc(C4C(=O)CCCC4=O)c3)c2cc1OC`, the melting point was over 220 °C. In the case of `COc1cc2c(cc1OC)C(c1ccccc1)N1CCN(Cc3ccccc3)CC1C2.Cl.Cl` (centres unmarked), the melting point is reported as 198 to 203 °C (dec.). In the case of `COc1cc2c(cc1OC)C(c1ccc(OC(C)C)cc1)N1CCNCC1C2.Cl.Cl` (centres unmarked), the melting point is reported as 180 to 185 °C (dec.). In the case of `COc1cc2c(cc1OC)C(c1ccccc1)N1CCN(CSC)CC1C2.Cl.Cl` (centres unmarked), the melting point is reported as 217 to 220 °C (dec.).

Tested on: mouse (BDF1 strain, male)
Experiment: Single-dose subcutaneous toxicity in mouse
Assay type: in vivo
Conditions: single dose 100 mg/kg subcutaneously, n=3, checked for 1 day
Procedure: Further, the compounds [I] and compounds [I-C] of the present invention have the merit of being less toxic, and highly safe as a medicine. For example, 8,9-dimethoxy-6-phenyl-1,3,4,6,11,11a-hexahydro-2H-pyrazino[1,2-b]-isoquinoline was subcutaneously administered to a mouse (BDF1 strain, male, n=3) in a single dose (100 mg/kg) and the progress was checked for 1 day.
With `COc1cc2c(cc1OC)C(c1ccccc1)N1CCNCC1C2` (centres unmarked) [Compound A, 8,9-dimethoxy-6-phenyl-1,3,4,6,11,11a-hexahydro-2H-pyrazino[1,2-b]isoquinoline] the death was “no death was observed”.
